Results on 6 compounds are retold here after ChEMBL document CHEMBL3228019, “Aminoglycoside antibiotics. 2. N,N-Dialkylkanamycins” (1979).

As usually defined, the MIC is the lowest concentration found to suppress growth.

Converted amounts (≈) assume the structure as drawn.

Common to all, as to format: functional
For test [1], the system named is Staphylococcus aureus. Nature of the test: Antibacterial activity against Staphylococcus aureus 9537 assessed as growth inhibition measured after overnight incubation by two-fold broth dilution method. On the technique in general: In broth dilution the organism is exposed to a series of concentrations in liquid medium.
The test system of test [2] is Staphylococcus aureus. Nature of the test: Antibacterial activity against Staphylococcus aureus 20240 expressing aminoglycoside-3'-phosphotransferase-4 assessed as growth inhibition measured after overnight incubation by two-fold broth dilution method.
Test [3] deals with Escherichia coli. In words: Antibacterial activity against Escherichia coli 9632 assessed as growth inhibition measured after overnight incubation by two-fold broth dilution method.
For test [4], the system named is Escherichia coli. Nature of the test: Antibacterial activity against Escherichia coli 20665 expressing aminoglycoside-3'-phosphotransferase-1 assessed as growth inhibition measured after overnight incubation by two-fold broth dilution method.
Test [5] deals with Escherichia coli. Nature of the test: Antibacterial activity against Escherichia coli 20732 expressing aminoglycoside-2''-nucleotidyltransferase assessed as growth inhibition measured after overnight incubation by two-fold broth dilution method.
Test [6] deals with Escherichia coli. Nature of the test: Antibacterial activity against Escherichia coli 21218 expressing aminoglycoside-6'-acetyltransferase assessed as growth inhibition measured after overnight incubation by two-fold broth dilution method.
Test [7] concerns Enterobacter cloacae. Nature of the test: Antibacterial activity against Enterobacter cloacae 9656 assessed as growth inhibition measured after overnight incubation by two-fold broth dilution method.
Test [8] has as its system Enterobacter cloacae. In words: Antibacterial activity against Enterobacter cloacae 20364 expressing aminoglycoside-3'-phosphotransferase-1 assessed as growth inhibition measured after overnight incubation by two-fold broth dilution method.
A further test has as its system Klebsiella pneumoniae. In words: Antibacterial activity against Klebsiella pneumoniae 9977 assessed as growth inhibition measured after overnight incubation by two-fold broth dilution method.
In test [9] the test system is Providencia rettgeri. In words: Antibacterial activity against Proteus rettgeri 9637 assessed as growth inhibition measured after overnight incubation by two-fold broth dilution method.
For test [10], the system named is Providencia rettgeri. In words: Antibacterial activity against Proteus rettgeri 21207 expressing aminoglycoside-2'-acetyltransferase assessed as growth inhibition measured after overnight incubation by two-fold broth dilution method.
Test [11] has as its system Pseudomonas aeruginosa. Nature of the test: Antibacterial activity against Pseudomonas aeruginosa 9843a assessed as growth inhibition measured after overnight incubation by two-fold broth dilution method.
Test [12] has as its system Pseudomonas aeruginosa. Nature of the test: Antibacterial activity against Pseudomonas aeruginosa 20610 expressing aminoglycoside-3'-phosphotransferase and aminoglycoside-3-acetyltransferase-1 assessed as growth inhibition measured after overnight incubation by two-fold broth dilution method.
Test [13] has as its system Pseudomonas aeruginosa. In words: Antibacterial activity against Pseudomonas aeruginosa 20653 expressing aminoglycoside-3'-phosphotransferase-4 assessed as growth inhibition measured after overnight incubation by two-fold broth dilution method.
Test [14] deals with Pseudomonas aeruginosa. Nature of the test: Antibacterial activity against Pseudomonas aeruginosa 20897 expressing aminoglycoside-3'-phosphotransferase-1 and aminoglycoside-6'-acetyltransferase assessed as growth inhibition measured after overnight incubation by two-fold broth dilution method.
Test [15] relates to Pseudomonas aeruginosa. In words: Antibacterial activity against kanamycin A/B impermeable Pseudomonas aeruginosa 21509 assessed as growth inhibition measured after overnight incubation by two-fold broth dilution method.

As to `N[C@@H]1C[C@H](N)[C@@H](O[C@H]2O[C@@H]3CNC(=O)O[C@H]3[C@H](O)[C@H]2O)[C@H](O)[C@H]1O[C@H]1O[C@H](CO)[C@@H](O)[C@@H]2NC(=O)O[C@@H]12`, the minimum inhibitory concentration (MIC) was 32 µg/mL (≈ 59.6 µM) in the test with Staphylococcus aureus [1]; 32 µg/mL (≈ 59.6 µM) with Staphylococcus aureus [2]; 32 µg/mL (≈ 59.6 µM) with Escherichia coli [3]; 63 µg/mL (≈ 117 µM) in the test with Escherichia coli [4]; 125 µg/mL (≈ 233 µM) in the test with Escherichia coli [5]; 63 µg/mL (≈ 117 µM) in the test with Escherichia coli [6]. Besides, the MIC with Enterobacter cloacae [7] was 63 µg/mL (≈ 117 µM); in the test with Enterobacter cloacae [8], 125 µg/mL (≈ 233 µM); in the test with Klebsiella pneumoniae, 63 µg/mL (≈ 117 µM); in the test with Providencia rettgeri [9], 63 µg/mL (≈ 117 µM); with Providencia rettgeri [10], 125 µg/mL (≈ 233 µM); in the test on Pseudomonas aeruginosa [11] it was 32 µg/mL (≈ 59.6 µM). The MIC in the test on Pseudomonas aeruginosa [12], in the test with Pseudomonas aeruginosa [13], with Pseudomonas aeruginosa [14] and in the test on Pseudomonas aeruginosa [15] was 32 µg/mL (≈ 59.6 µM) in each case.

Take `CNC[C@H]1O[C@H](O[C@H]2[C@H](O)[C@@H](O[C@H]3O[C@H](CO)[C@@H](O)[C@H](NC)[C@H]3O)[C@H](N)C[C@@H]2N)[C@H](N)[C@@H](O)[C@@H]1O`: the MIC with Staphylococcus aureus [1] was 4 µg/mL (≈ 7.82 µM); in the test on Staphylococcus aureus [2], 8 µg/mL (≈ 15.6 µM); with Escherichia coli [3] it was 16 µg/mL (≈ 31.3 µM); with Escherichia coli [4], 63 µg/mL (≈ 123 µM); in the test on Escherichia coli [5], 63 µg/mL (≈ 123 µM); with Escherichia coli [6], 63 µg/mL (≈ 123 µM). Besides, the MIC was found to be 8 µg/mL (≈ 15.6 µM) in the test on Enterobacter cloacae [7]; 63 µg/mL (≈ 123 µM) in the test with Enterobacter cloacae [8]; 4 µg/mL (≈ 7.82 µM) with Klebsiella pneumoniae; 16 µg/mL (≈ 31.3 µM) in the test with Providencia rettgeri [9]; 63 µg/mL (≈ 123 µM) with Providencia rettgeri [10]; 8 µg/mL (≈ 15.6 µM) in the test with Pseudomonas aeruginosa [11]. The MIC with Pseudomonas aeruginosa [12] came to 8 µg/mL (≈ 15.6 µM); in the test on Pseudomonas aeruginosa [13] it was 8 µg/mL (≈ 15.6 µM); with Pseudomonas aeruginosa [14], 8 µg/mL (≈ 15.6 µM); in the test on Pseudomonas aeruginosa [15], 16 µg/mL (≈ 31.3 µM).

Consider `CNC[C@H]1O[C@H](O[C@H]2[C@H](O)[C@@H](O[C@H]3O[C@H](CO)[C@@H](O)[C@H](NC)[C@H]3O)[C@H](N)C[C@@H]2N)[C@H](O)[C@@H](O)[C@@H]1O`, for which the minimal inhibitory concentration (MIC) is > 125 µg/mL in the test with Staphylococcus aureus [1]; > 125 µg/mL in the test with Staphylococcus aureus [2]; > 125 µg/mL in the test on Escherichia coli [3]; > 125 µg/mL in the test on Escherichia coli [4]; > 125 µg/mL in the test with Escherichia coli [5]; 125 µg/mL (≈ 244 µM) in the test with Escherichia coli [6]. Also, the MIC in the test with Enterobacter cloacae [7], in the test on Enterobacter cloacae [8], in the test on Klebsiella pneumoniae, in the test with Providencia rettgeri [9], in the test with Providencia rettgeri [10] and with Pseudomonas aeruginosa [11] was > 125 µg/mL throughout. The MIC in the test with Pseudomonas aeruginosa [12], in the test on Pseudomonas aeruginosa [13], with Pseudomonas aeruginosa [14] and with Pseudomonas aeruginosa [15] was > 125 µg/mL throughout.

In the case of `CCNC[C@H]1O[C@H](O[C@H]2[C@H](O)[C@@H](O[C@H]3O[C@H](CO)[C@@H](O)[C@H](NCC)[C@H]3O)[C@H](N)C[C@@H]2N)[C@H](O)[C@@H](O)[C@@H]1O`, the MIC in the test with Staphylococcus aureus [1] was 63 µg/mL (≈ 117 µM); with Staphylococcus aureus [2], > 125 µg/mL; with Escherichia coli [3] it was > 125 µg/mL; in the test on Escherichia coli [4], > 125 µg/mL; with Escherichia coli [5], > 125 µg/mL; with Escherichia coli [6], > 125 µg/mL. Further, the MIC is 125 µg/mL (≈ 231 µM) with Enterobacter cloacae [7]; > 125 µg/mL with Enterobacter cloacae [8]; > 125 µg/mL in the test with Klebsiella pneumoniae; 32 µg/mL (≈ 59.2 µM) in the test with Providencia rettgeri [9]; 4 µg/mL (≈ 7.4 µM) with Providencia rettgeri [10]; > 125 µg/mL in the test on Pseudomonas aeruginosa [11]. The MIC in the test with Pseudomonas aeruginosa [12], in the test with Pseudomonas aeruginosa [13], in the test with Pseudomonas aeruginosa [14] and in the test with Pseudomonas aeruginosa [15] was > 125 µg/mL in each case.

As to `NC[C@H]1O[C@H](O[C@H]2[C@H](O)[C@@H](O[C@H]3O[C@H](CO)[C@@H](O)[C@H](N)[C@H]3O)[C@H](N)C[C@@H]2N)[C@H](N)[C@@H](O)[C@@H]1O` [BEKANAMYCIN], the MIC in the test on Staphylococcus aureus [1] was 0.5 µg/mL (≈ 1.03 µM); with Staphylococcus aureus [2], > 125 µg/mL; in the test with Escherichia coli [3], 2 µg/mL (≈ 4.14 µM); with Escherichia coli [4] it was > 125 µg/mL; with Escherichia coli [5] it was 32 µg/mL (≈ 66.2 µM); in the test with Escherichia coli [6], 32 µg/mL (≈ 66.2 µM). For the same compound, the MIC with Enterobacter cloacae [7] is 2 µg/mL (≈ 4.14 µM); in the test with Enterobacter cloacae [8], > 125 µg/mL; in the test on Klebsiella pneumoniae, 0.25 µg/mL (≈ 0.517 µM); in the test on Providencia rettgeri [9], 0.5 µg/mL (≈ 1.03 µM); with Providencia rettgeri [10], 32 µg/mL (≈ 66.2 µM); with Pseudomonas aeruginosa [11] it was 63 µg/mL (≈ 130 µM). For the same compound, the MIC was 32 µg/mL (≈ 66.2 µM) in the test on Pseudomonas aeruginosa [12], > 125 µg/mL in the test on Pseudomonas aeruginosa [13], > 125 µg/mL with Pseudomonas aeruginosa [14] and > 125 µg/mL with Pseudomonas aeruginosa [15].

Regarding `NC[C@@H]1O[C@@H](O[C@H]2[C@H](O)[C@@H](O[C@H]3O[C@H](CO)[C@@H](O)[C@H](N)[C@H]3O)[C@H](N)C[C@@H]2N)[C@@H](O)[C@H](O)[C@H]1O` [KANAMYCIN A], the MIC was 1 µg/mL (≈ 2.06 µM) with Staphylococcus aureus [1]; > 125 µg/mL in the test on Staphylococcus aureus [2]; 4 µg/mL (≈ 8.26 µM) in the test with Escherichia coli [3]; > 125 µg/mL with Escherichia coli [4]; 125 µg/mL (≈ 258 µM) in the test on Escherichia coli [5]; > 125 µg/mL in the test on Escherichia coli [6]. Moreover, the MIC is 4 µg/mL (≈ 8.26 µM) with Enterobacter cloacae [7]; > 125 µg/mL with Enterobacter cloacae [8]; 0.25 µg/mL (≈ 0.516 µM) in the test with Klebsiella pneumoniae; 0.5 µg/mL (≈ 1.03 µM) with Providencia rettgeri [9]; 8 µg/mL (≈ 16.5 µM) in the test with Providencia rettgeri [10]; 63 µg/mL (≈ 130 µM) with Pseudomonas aeruginosa [11]. The MIC in the test with Pseudomonas aeruginosa [12] was 32 µg/mL (≈ 66 µM); in the test on Pseudomonas aeruginosa [13] it was > 125 µg/mL; in the test with Pseudomonas aeruginosa [14], > 125 µg/mL; with Pseudomonas aeruginosa [15], > 125 µg/mL.
